According to PubChem BioAssay AID540268 (Broad Institute, 2011):
“And” between values parts separate entries of the source, which are not always exact repeats. Identical values can stand only once. The source made the active and inactive calls. The rule behind the calls is not given here.

assay: growth inhibition of yeast carrying parasite Hsp90, dose response, anti-malarial Hsp90 inhibitor project, ATP luminescence, 48 h, cherry-picked samples (AID 540268); details: yeast expressing the parasite Hsp90, ATP luminescence;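 for activity change, negative = inhibition: 0% = neutral control wells and -100% = positive control wells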

Structure (SMILES) | AC50
Cc1cccc2cc(CN(Cc3nnnn3C3CCCCC3)C3CCCC3)c3nnnn3c12 | 2.2 µM
Cc1ccc(N=Cc2cc(Cc3ccccc3Cl)cc([N+](=O)[O-])c2O)c(O)c1 | 0.216 µM
CC[C@@H]1Cc2cc(O)ccc2C2=C1c1ccc(O)cc1C[C@H]2CC | 7.76 µM
Cc1cc(C2CCCCC2)n(O)c(=O)c1 | 1.19 µM
O=C1C=CC(=O)N1c1ccc(O)cc1 | 1.44 µM
CCCCCCCCCCCCCCCC[n+]1ccccc1 | 4.03 µM and 3.43 µM
Cc1sc2ncnc(N/N=C/c3ccccc3O)c2c1C | 4.4 µM
Cc1cc2ccccn2c1C(=O)c1ccc([N+](=O)[O-])o1 | 2.33 µM
CC(C)(C)c1cc(C(c2cccnc2)N2CCN(CCO)CC2)cc(C(C)(C)C)c1O (centres undefined) | 25 µM
COc1cccc(-c2nc(NC3CCCC3)c3ccccc3n2)c1O | 4.23 µM
Cc1ccc(S(=O)(=O)c2ccc([N+](=O)[O-])cn2)cc1 | 3.87 µM
COc1ccc(OC)c(N2C(=O)NC(=O)/C(=C\c3ccc([N+](=O)[O-])s3)C2=O)c1 | 5.48 µM
Nc1nonc1C(=O)NCCN=Cc1cc(Cc2ccccc2)cc(Br)c1O | 2.3 µM
CCCCCCCCOC(=O)c1cc([N+](=O)[O-])c(Sc2ncnc3nc[nH]c23)c([N+](=O)[O-])c1 | 1.4 µM
Oc1c(Br)cc(Br)cc1C=NCc1ccccc1 | 7.51 µM
O=[N+]([O-])c1cc(CN2CCN(c3cccc(C(F)(F)F)c3)CC2)c2cccnc2c1O | 4.42 µM
CNc1ccc2oc(C[C@H]3O[C@@]4(CC[C@H]3C)O[C@H]([C@H](C)C(=O)c3ccc[nH]3)[C@H](C)C[C@H]4C)nc2c1C(=O)O | 0.813 µM
CC(C)(C)c1ccc(C(=O)CC(Sc2ccc(Cl)cc2)C(=O)O)cc1 (centres undefined) | 7.29 µM
CC(=O)Nc1ccc(Nc2cc(C(C)C)nc3c(-c4ccccc4)c(C)nn23)cc1 | 3.68 µM
O=[N+]([O-])c1cc(/C=N/O)ccc1Oc1ccccc1Cl | 2.86 µM
Cc1cccnc1Nc1nc(-c2ccccn2)cs1 | 4.32 µM
CC(=NNC(=S)N1CCN(C2CCCCCC2)CC1)c1ccccn1 | 3.95 µM

Structure (SMILES) | AC50
C=C(C)COc1ccc(-c2[nH]ncc2Oc2cccc(OC)c2)c(O)c1 | 8.1 µM
COC(=O)C1CN(C#N)N(c2ccc(Cl)cc2)C12c1ccccc1-c1ccccc12 (centres undefined) | 4.07 µM
C[C@@H]1C[C@@H]([C@H](O)CC2CC(=O)NC(=O)C2)C(=O)[C@@H](C)C1 | < 0.195 µM
Cc1cc2n(n1)C(c1c[nH]c3ccccc13)Nc1ccccc1-2 (centres undefined) | 2.67 µM
O=C(Nc1ccccc1)c1nnsc1S(=O)c1ccc(Cl)cc1 (centres undefined) | < 0.195 µM
Cn1cncc1C#Cc1c(-c2ccsc2)sc2ccccc12 | 7.55 µM
Cc1ccccc1Oc1cc(-n2ncc(Cl)c(Cl)c2=O)ncn1 | 1.11 µM
O=C(Nc1nc(-c2ccccc2)c(-c2ccccc2)o1)c1ccc(F)cc1 | 8.21 µM
O=C(Nc1ccccc1N1CCOCC1)c1ccc([N+](=O)[O-])o1 | 4.41 µM
Cc1cccc(/C=C/C(=O)c2ccc([N+](=O)[O-])o2)c1 | 1.56 µM
Oc1cc(Cl)ccc1Oc1ccc(Cl)cc1Cl | 7.54 µM
O=C(/C=C/c1ccccc1[N+](=O)[O-])c1ccccc1Br | 3.2 µM
O=C1c2ccccc2NC(c2ccc(-c3ccc(Br)cc3)o2)N1O (centres undefined) | 7.96 µM
COc1ccc2c(c1)[C@H]1[C@H](CO2)[C@H](c2ccccc2)[C@]2(C)C(=O)Nc3ccc(C)cc3C(=O)N12 | 4.75 µM
Nc1cccc(Oc2c(F)c(F)c(Oc3cccc(N)c3)c(F)c2F)c1 | 9.03 µM
O=[N+]([O-])c1ccc(N2N=C(c3ccccc3)CC2c2ccccc2O)cc1 (centres undefined) | 3.91 µM
O=c1cc(-c2ccc(C3CCCCC3)cc2)[nH][nH]1 | 7.7 µM
CC(=O)OC1(C)CC(C)C(=O)C(C(O)CC2CC(=O)NC(=O)C2)C1 (centres undefined) | < 0.195 µM
CCCCCCCCCCCCCCCC[N+](C)(C)CC | 4.04 µM
Cc1ccc(N2C(=O)C3C4C=CC(CNC(=S)Nc5cccc(Cl)c5)(O4)C3C2=O)cc1 (centres undefined) | 8.74 µM
Cc1ccc(N=Nc2ccc(O)cc2)c(Br)c1 | 8.33 µM
CCCCCCCCCCC[N+](C)(C)CC/C=C1/c2ccccc2Sc2ccc(Cl)cc21 | 7.99 µM

Structure (SMILES) | AC50
O=[N+]([O-])c1cccc(SSc2cccc([N+](=O)[O-])c2)c1 | 4.62 µM
CC(=NNC(=S)N1CC2CCC(CC2)C1)c1ccncn1 | 2.36 µM
Cc1cccc(COC(=O)CCCNC(=O)c2ccc(Cl)cc2)c1 | 8.69 µM
COc1ccc2c(c1)[C@H]1[C@H](CO2)[C@H](c2ccccc2)[C@]2(C)C(=O)Nc3ccc(Cl)cc3C(=O)N12 | 1.8 µM
Clc1ccc(COC(Cn2ccnc2)c2ccc(Cl)cc2Cl)c(Cl)c1 (centres undefined) | < 0.195 µM
O=c1c2ccccc2nc(-c2ccc(-c3ccccc3)cc2)n1-c1ccncc1 | 5.21 µM
O=C(Nc1nnc(-c2ccc3c(c2)CCCC3)o1)c1ccc(Cl)cc1Cl | 3.35 µM
COc1ccc(-c2cc(C(=O)N3CCN(c4ccccc4F)CC3)c3ccccc3n2)c(OC)c1 | 4.09 µM
CCCCCCOc1ccc(N2C(=O)CC(N3CCC(C(=O)OCC)CC3)C2=O)cc1 (centres undefined) | 4.38 µM
O=C(N/N=C/c1ccccn1)c1cc(-c2ccc(Br)cc2)nc2ccccc12 | 5.33 µM
O=C(/C=C/c1cccc([N+](=O)[O-])c1)c1ccco1 | 4.27 µM
O=C(c1ccccc1)c1cc(Cl)ccc1N1C(=O)C=CC1=O | 0.432 µM
Cc1ccc(C(=O)N2CCN(c3ccccc3Cl)CC2)cc1[N+](=O)[O-] | 4.09 µM
O=c1oc2ccccc2c(O)c1Cc1cc(Cl)c2cccnc2c1O | 3.36 µM
O=C(Nc1nc(-c2ccccn2)cs1)C1COc2ccccc2O1 (centres undefined) | 8.85 µM
COC(=O)/C=C\C(=O)Nc1cccc([N+](=O)[O-])c1 | 2.43 µM
Oc1c(CN2CCCCC2)cc(Br)c2cccnc12 | 2.95 µM
COc1ccc(OC)c(NC(=O)Nc2ccc(O)c3ccccc23)c1 | < 0.195 µM
O=C1c2cc(Cl)ccc2-c2c(O)cc(Cl)cc21 | 1.4 µM
O=C1OC(c2ccccc2)(c2ccc3cc(O)ccc3c2)c2ccccc21 (centres undefined) | 9.13 µM
O=c1ccc(N=Nc2ccccc2)ccc1O | 1.48 µM
Cc1[nH]n(-c2ccccc2)c(=O)c1C(C[N+](=O)[O-])c1ccc(Br)cc1 (centres undefined) | 8.54 µM

Structure (SMILES) | AC50
CCN1CCN(C(c2ccc(C(F)(F)F)cc2)c2ccc3cccnc3c2O)CC1 (centres undefined) | 1.54 µM
Cc1cc(N2C(=O)C=CC2=O)c([N+](=O)[O-])cc1C | 1.18 µM
CC(=NNC(=S)N1CCN(c2ccccn2)CC1)c1nccs1 | 2.58 µM
O=C(O)c1cccc2c1Cc1cc([N+](=O)[O-])ccc1-2 | 0.808 µM
CC1CCN(c2nc(Cl)nc(Nc3ccc([N+](=O)[O-])cc3)n2)CC1 | 24 µM
CCCCOc1ccc(C(=O)NNC(=S)NC(=O)CC)cc1 | 4.2 µM
CCCCCCC(Cl)(Cn1ccnc1)c1ccccc1 (centres undefined) | 8.41 µM
O=S1(=O)C=C(Sc2nnc(-c3ccccc3)o2)c2ccccc21 | 3.57 µM
CCN1/C(=C\c2ccc3ccccc3[n+]2CC)Sc2cc(C)ccc21 | 7.9 µM
Clc1nssc1=Nc1ccc(Br)cc1 | 3.4 µM
CCOC(=O)C1=Nc2ccccc2C1=[N+]=[N-] | 0.532 µM
O=S(=O)(/C=C/c1ccccc1)NC1CCCCCC1 | 4.16 µM
O=C(c1ccc2c(=O)n(C3CCCC3)c(=S)[nH]c2c1)N1CCc2ccccc21 | 6.25 µM
O=C(NNc1nc2ccc(Cl)cc2s1)c1cc(-c2cccs2)nc2ccccc12 | 1.49 µM
Oc1ccc(N=Nc2nc(-c3ccccc3)c(-c3ccccc3)[nH]2)cc1 | 6.13 µM
COC(=O)C1=C(C(=O)OC)C2OC1c1cc3ccccc3cc12 | 1.92 µM
Cc1nn2c(NCc3ccccn3)cc(C(C)(C)C)nc2c1-c1ccccc1 | 3.02 µM
O=C(Nc1nc(-c2cccs2)cs1)c1ccc([N+](=O)[O-])o1 | 5.69 µM
CCN1/C(=C/c2ccc3cc(C)ccc3[n+]2CC)Sc2ccccc21 | 8.11 µM
O=C(/C=C/c1cccc([N+](=O)[O-])c1)c1cccs1 | 2.63 µM
CCOC(=O)C1=C(N)N2C(=O)C(C)SC2=C(C(=O)OC)C1c1ccccc1OC (centres undefined) | 0.706 µM
COc1ccc(NC2CCN(C3CC(=O)N(c4ccc(F)c(Cl)c4)C3=O)CC2)cc1 (centres undefined) | 2.61 µM

Structure (SMILES) | AC50
NC(=O)C1CCN(C2CC(=O)N(c3ccc(F)c(Cl)c3)C2=O)CC1 (centres undefined) | 1.67 µM
Cc1ccc(NS(=O)(=O)c2ccc(N3CCN(c4ccc(O)cc4)CC3)c([N+](=O)[O-])c2)c(C)c1 | 5.7 µM
O=[N+]([O-])c1c(Nc2ccccn2)cc(Cl)c2nonc12 | 0.803 µM
c1ccc(-c2nnc(-c3ccccn3)nc2NC2CCCCC2)cc1 | 0.393 µM
CC(C)(C)c1nnc(N/N=C/c2cc(Br)ccc2O)n(N)c1=O | 4.92 µM
CC(C)(C)C(=O)NC(=S)NNC(=O)c1sc2ccccc2c1Cl | 7.72 µM
O=C(/C(=C/O)N=Nc1ccccc1)c1ccc(Cl)cc1 | 6.25 µM
CCCOC(=O)c1ccc(Oc2cn[nH]c2-c2ccc(OCC)cc2O)cc1 | < 0.195 µM
CN1CCc2nc3sc(C(=O)C45CC6CC(CC(C6)C4)C5)c(N)c3cc2C1 | 0.502 µM
CC1(C)CC[C@]2(C(=O)O)CC[C@]3(C)C(=CC[C@@H]4[C@@]5(C)CC[C@H](O[C@@H]6O[C@H](C(=O)O)[C@@H](O)[C@H](O[C@@H]7OC[C@H](O)[C@H](O)[C@H]7O)[C@H]6O)C(C)(C)[C@@H]5CC[C@]43C)[C@@H]2C1 | 1.06 µM
COC(=O)c1ccc(N2C(=O)CC(N(C)Cc3ccccc3)C2=O)cc1 (centres undefined) | 8.53 µM
Cc1ccc(N2C(=O)C3C4C=CC(CNC(=S)N5CCN(c6ccccn6)CC5)(O4)C3C2=O)cc1 (centres undefined) | 8.31 µM
CC(NC(=O)c1ccc(Br)cc1)c1ccc2c(c1)CCCC2 (centres undefined) | 1.37 µM
O=C(/C=C/c1ccc([N+](=O)[O-])cc1)c1ccccc(=O)c1O | 1.04 µM
COC(=O)c1ccc(NC(=O)c2nc(S(=O)(=O)Cc3cccc(C)c3)ncc2Cl)cc1 | 3.99 µM
CCOc1ccc2c(ccc(/C=C/c3cc(C)c4cccnc4c3O)[n+]2C)c1 | 4.11 µM
O=C1Nc2ccc(Br)cc2/C1=C/C(=O)c1ccc2c(c1)OCO2 | 2.63 µM
COc1ccc(C(=O)/C=C/C(=O)N(CC(=O)NC2CCCCC2)Cc2cccs2)c(O)c1 | 3.3 µM

same assay, conditions: yeast expressing the parasite Hsp90, ATP luminescence, at 26 µM (top of the series)

Structure (SMILES) | activity change, negative = inhibition
CCOC(=O)c1cc([N+](=O)[O-])cc([N+](=O)[O-])c1Sc1ncnc2nc[nH]c12 | -6.96% (inactive)
O=C(N/N=C/c1ccc([N+](=O)[O-])o1)c1sc2ccccc2c1Cl | 18.4% (inactive)
CC(C)=CCc1c(O)ccc(C2COc3c(CC=C(C)C)c(O)cc(O)c3C2=O)c1O (centres undefined) | -110% (inactive)
